The values that follow come from ChEMBL document CHEMBL4265922, “Synthesis and antiproliferative activity of 6,7-disubstituted-4-phenoxyquinoline derivatives bearing the 1,8-naphthyridin-2-one moiety” (Eur J Med Chem, 2018).

The test system of one assay is A549. Nature of the assay: cells. The note with it: Homo sapiens, A549, 72 h.
Assay [1] has as its system HepG2. The assay is described as follows: cells. The note with it: Homo sapiens, HepG2, 72 h.
For the next assay, the system named is MCF7. Nature of the assay: cells. The note with it: Homo sapiens, MCF7, 72 h.
The target in assay [2] is Mast/stem cell growth factor receptor Kit (Homo sapiens, UniProt P10721). Nature of the assay: Inhibition of c-KIT (unknown origin) using FAM-labeled peptide as substrate incubated for 10 mins followed by substrate addition by HTRF assay. (In TR-FRET formats the signal depends on donor and acceptor labels being close together.)
For assay [3], the target named is Vascular endothelial growth factor receptor 3 (Homo sapiens, UniProt P35916). The assay is described as follows: Inhibition of FLT4 (unknown origin) using FAM-labeled peptide as substrate incubated for 10 mins followed by substrate addition by HTRF assay.
Sequence of Vascular endothelial growth factor receptor 3 (P35916 whole entry): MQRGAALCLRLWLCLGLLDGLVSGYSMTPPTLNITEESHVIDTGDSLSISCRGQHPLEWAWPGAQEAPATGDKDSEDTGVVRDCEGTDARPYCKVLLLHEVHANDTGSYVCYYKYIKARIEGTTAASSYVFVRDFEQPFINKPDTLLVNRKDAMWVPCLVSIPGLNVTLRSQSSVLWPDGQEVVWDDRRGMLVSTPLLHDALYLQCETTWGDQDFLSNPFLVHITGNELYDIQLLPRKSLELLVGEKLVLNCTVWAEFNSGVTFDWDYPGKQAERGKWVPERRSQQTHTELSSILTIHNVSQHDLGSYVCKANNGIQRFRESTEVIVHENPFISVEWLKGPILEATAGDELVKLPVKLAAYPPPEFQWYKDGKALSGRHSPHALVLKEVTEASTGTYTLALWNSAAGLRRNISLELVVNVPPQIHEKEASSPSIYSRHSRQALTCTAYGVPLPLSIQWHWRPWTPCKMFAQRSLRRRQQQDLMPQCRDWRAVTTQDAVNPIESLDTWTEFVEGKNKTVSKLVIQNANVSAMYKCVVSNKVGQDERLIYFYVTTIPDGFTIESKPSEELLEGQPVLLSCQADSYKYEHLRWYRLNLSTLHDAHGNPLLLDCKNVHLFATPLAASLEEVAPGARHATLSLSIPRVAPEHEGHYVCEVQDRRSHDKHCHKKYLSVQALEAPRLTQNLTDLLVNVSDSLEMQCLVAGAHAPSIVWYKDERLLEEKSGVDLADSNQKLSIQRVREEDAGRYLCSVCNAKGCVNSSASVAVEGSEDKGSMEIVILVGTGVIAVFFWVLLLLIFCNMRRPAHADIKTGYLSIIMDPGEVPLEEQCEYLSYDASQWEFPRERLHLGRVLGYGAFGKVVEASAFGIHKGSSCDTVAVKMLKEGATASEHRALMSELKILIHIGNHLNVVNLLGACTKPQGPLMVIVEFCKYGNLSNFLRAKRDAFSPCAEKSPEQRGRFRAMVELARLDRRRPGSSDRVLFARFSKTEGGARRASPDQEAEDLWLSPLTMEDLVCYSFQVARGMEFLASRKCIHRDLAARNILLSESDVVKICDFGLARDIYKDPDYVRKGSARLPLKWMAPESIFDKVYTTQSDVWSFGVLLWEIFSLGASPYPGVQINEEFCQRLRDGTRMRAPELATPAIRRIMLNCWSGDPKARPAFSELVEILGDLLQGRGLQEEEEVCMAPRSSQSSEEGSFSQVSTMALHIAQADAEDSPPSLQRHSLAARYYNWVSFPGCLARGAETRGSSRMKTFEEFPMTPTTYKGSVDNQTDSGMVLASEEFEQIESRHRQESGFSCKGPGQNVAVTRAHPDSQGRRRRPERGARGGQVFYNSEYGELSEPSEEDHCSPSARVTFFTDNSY
Assay [4] addresses ALK tyrosine kinase receptor (Homo sapiens, UniProt Q9UM73). The assay is described as follows: Inhibition of ALK (unknown origin) using FAM-labeled peptide as substrate incubated for 10 mins followed by substrate addition by HTRF assay.
In assay [5] the target is Hepatocyte growth factor receptor (Homo sapiens, UniProt P08581). Nature of the assay: Inhibition of c-MET (unknown origin) using FAM-labeled peptide as substrate incubated for 10 mins followed by substrate addition by HTRF assay.
Sequence of Hepatocyte growth factor receptor (P08581 whole entry): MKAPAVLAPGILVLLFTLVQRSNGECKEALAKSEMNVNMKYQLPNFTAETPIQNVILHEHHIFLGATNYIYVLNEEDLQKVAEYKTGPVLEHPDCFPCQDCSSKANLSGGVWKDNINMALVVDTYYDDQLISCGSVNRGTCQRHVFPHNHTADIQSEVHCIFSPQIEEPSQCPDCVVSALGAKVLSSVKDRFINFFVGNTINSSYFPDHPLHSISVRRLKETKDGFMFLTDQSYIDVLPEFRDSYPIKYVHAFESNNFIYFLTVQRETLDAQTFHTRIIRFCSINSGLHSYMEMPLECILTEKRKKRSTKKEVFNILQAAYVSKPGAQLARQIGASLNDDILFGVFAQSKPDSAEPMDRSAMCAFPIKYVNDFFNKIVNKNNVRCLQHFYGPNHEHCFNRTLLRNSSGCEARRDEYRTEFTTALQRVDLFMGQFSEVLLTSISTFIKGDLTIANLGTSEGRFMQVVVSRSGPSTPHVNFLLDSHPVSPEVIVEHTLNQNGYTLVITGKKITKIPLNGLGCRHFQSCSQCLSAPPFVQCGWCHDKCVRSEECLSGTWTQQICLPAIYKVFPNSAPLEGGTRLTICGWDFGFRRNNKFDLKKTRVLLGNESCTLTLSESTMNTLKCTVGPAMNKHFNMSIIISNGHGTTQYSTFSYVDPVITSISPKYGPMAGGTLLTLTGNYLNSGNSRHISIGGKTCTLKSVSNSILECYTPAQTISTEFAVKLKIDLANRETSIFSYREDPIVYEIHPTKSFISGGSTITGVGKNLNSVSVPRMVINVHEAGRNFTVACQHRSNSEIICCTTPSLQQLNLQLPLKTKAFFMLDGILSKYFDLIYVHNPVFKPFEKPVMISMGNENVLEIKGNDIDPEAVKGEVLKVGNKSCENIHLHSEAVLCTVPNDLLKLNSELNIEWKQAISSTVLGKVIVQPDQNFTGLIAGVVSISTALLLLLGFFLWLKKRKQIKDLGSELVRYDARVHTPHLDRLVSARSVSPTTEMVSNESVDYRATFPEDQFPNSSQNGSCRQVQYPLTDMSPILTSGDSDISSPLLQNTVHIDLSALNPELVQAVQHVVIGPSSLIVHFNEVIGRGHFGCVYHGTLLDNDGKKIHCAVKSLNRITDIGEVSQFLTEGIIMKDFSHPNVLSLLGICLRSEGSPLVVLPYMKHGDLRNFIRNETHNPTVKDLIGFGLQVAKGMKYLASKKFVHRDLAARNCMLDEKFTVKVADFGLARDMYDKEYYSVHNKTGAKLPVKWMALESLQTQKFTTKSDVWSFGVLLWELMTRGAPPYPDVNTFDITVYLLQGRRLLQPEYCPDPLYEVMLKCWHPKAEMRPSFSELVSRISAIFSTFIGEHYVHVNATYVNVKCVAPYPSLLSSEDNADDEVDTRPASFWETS
Assay [6] has as its target T1, Receptor-type tyrosine-protein kinase FLT3 (Homo sapiens, UniProt P36888).
T1 sequence (P36888 whole entry): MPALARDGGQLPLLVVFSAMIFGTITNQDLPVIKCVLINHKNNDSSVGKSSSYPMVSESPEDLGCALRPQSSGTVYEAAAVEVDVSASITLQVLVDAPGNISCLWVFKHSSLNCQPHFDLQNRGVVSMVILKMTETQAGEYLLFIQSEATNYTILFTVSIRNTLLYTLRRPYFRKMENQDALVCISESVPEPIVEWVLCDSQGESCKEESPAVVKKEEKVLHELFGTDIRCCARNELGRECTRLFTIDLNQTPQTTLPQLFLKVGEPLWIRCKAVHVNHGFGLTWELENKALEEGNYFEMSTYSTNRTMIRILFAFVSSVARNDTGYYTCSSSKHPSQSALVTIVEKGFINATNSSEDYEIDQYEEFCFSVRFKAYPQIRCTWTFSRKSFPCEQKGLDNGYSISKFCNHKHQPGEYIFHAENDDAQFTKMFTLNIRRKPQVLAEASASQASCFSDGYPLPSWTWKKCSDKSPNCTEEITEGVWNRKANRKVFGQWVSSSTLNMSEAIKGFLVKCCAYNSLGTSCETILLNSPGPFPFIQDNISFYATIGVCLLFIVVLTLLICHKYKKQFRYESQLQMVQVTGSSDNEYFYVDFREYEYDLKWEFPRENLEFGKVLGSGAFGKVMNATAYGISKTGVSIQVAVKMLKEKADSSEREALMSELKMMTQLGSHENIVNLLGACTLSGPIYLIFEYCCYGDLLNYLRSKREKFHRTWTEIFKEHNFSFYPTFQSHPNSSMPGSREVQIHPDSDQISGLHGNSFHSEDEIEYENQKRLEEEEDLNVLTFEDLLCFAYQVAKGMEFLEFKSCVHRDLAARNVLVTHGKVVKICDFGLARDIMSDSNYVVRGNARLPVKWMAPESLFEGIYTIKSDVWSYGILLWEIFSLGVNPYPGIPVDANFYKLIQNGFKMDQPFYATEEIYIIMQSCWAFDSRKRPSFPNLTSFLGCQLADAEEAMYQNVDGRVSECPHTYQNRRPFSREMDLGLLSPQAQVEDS
Nature of the assay: Inhibition of FLT3 (unknown origin) using FAM-labeled peptide as substrate incubated for 10 mins followed by substrate addition by HTRF assay.

Assay [7] concerns the target Epidermal growth factor receptor (Homo sapiens, UniProt P00533). The assay is described as follows: Inhibition of EGFR (unknown origin) using FAM-labeled peptide as substrate incubated for 10 mins followed by substrate addition by HTRF assay.
For assay [8], the target named is Platelet-derived growth factor receptor beta (Homo sapiens, UniProt P09619). Nature of the assay: Inhibition of PDGFRbeta (unknown origin) using FAM-labeled peptide as substrate incubated for 10 mins followed by substrate addition by HTRF assay.
Sequence of Platelet-derived growth factor receptor beta (P09619 whole entry): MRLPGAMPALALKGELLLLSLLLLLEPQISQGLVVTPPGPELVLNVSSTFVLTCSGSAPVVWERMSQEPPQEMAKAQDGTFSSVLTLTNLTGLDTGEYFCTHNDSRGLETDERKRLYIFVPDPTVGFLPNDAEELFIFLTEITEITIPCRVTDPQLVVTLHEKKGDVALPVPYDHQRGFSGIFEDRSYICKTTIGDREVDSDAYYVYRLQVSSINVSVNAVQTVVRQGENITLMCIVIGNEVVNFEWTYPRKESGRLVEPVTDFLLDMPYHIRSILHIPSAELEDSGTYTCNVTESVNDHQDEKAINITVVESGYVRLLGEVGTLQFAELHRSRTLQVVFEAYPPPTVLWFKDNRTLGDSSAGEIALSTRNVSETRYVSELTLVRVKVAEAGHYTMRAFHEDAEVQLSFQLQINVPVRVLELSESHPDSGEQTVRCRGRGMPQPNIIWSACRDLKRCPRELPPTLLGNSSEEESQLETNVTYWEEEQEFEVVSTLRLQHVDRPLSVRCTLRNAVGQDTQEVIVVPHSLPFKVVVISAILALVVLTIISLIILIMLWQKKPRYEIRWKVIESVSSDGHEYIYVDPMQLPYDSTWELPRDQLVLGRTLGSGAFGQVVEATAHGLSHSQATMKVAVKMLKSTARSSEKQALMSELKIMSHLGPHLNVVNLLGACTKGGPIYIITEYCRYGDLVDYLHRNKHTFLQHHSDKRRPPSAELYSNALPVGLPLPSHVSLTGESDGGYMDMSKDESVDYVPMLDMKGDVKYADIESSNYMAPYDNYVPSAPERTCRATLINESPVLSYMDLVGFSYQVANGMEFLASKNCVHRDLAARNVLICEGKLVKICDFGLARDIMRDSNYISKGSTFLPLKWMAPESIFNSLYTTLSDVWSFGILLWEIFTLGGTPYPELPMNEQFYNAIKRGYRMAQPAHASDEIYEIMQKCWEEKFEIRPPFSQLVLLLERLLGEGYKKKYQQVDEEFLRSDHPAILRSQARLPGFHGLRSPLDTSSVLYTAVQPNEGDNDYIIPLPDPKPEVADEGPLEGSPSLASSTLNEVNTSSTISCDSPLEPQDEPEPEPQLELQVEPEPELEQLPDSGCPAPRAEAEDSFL
For assay [9], the target named is Platelet-derived growth factor receptor alpha (Homo sapiens, UniProt P16234). Nature of the assay: Inhibition of PDGFRalpha (unknown origin) using FAM-labeled peptide as substrate incubated for 10 mins followed by substrate addition by HTRF assay.
Sequence of Platelet-derived growth factor receptor alpha (P16234 whole entry): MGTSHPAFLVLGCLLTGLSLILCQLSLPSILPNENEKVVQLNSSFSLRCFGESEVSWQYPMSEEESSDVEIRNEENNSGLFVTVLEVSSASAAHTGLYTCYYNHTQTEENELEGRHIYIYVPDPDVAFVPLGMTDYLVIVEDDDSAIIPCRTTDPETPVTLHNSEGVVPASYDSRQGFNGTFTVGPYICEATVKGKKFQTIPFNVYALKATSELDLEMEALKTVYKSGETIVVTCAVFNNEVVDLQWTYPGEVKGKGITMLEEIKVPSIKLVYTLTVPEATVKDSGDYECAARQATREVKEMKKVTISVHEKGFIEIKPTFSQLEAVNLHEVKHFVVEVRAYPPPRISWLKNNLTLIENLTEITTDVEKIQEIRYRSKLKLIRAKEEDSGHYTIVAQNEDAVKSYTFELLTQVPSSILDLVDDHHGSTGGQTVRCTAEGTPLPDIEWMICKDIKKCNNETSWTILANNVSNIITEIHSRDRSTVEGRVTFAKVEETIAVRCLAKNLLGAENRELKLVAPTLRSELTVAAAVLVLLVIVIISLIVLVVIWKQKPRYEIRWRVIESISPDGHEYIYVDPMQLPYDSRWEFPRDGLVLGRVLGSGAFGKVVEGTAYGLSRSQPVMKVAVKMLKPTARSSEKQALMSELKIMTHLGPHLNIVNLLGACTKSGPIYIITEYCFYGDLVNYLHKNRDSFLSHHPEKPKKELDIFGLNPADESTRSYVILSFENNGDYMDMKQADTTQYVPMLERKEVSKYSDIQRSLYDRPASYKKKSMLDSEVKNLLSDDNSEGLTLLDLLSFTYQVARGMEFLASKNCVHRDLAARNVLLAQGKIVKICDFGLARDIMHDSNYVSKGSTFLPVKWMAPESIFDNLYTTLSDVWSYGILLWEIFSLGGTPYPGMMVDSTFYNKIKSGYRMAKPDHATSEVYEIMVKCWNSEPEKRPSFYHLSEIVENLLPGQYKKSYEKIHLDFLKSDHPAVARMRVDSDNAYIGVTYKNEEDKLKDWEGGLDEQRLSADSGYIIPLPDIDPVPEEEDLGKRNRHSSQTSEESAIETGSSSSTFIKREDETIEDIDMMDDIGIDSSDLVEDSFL
Assay [10] concerns HepG2. The assay is described as follows: Induction of apoptosis in human HepG2 cells assessed as late apoptotic cells at 0.5 uM after 48 hrs by Annexin V-FITC/PI staining based flow cytometry (reference value: 3.53%). The assay is classed as functional.
Assay [11] deals with HepG2. Nature of the assay: Induction of apoptosis in human HepG2 cells assessed as early apoptotic cells at 0.5 uM after 48 hrs by Annexin V-FITC/PI staining based flow cytometry (reference value: 2.97%). The class given is functional. (In flow cytometry, cells or beads pass a laser one at a time.)
In assay [12] the test system is HepG2. The assay is described as follows: Induction of apoptosis in human HepG2 cells assessed as necrotic cells at 0.5 uM after 48 hrs by Annexin V-FITC/PI staining based flow cytometry (reference value: 1.81%). The class given is functional.
Assay [13] concerns HepG2. The assay is described as follows: Induction of apoptosis in human HepG2 cells assessed as viable cells at 0.5 uM after 48 hrs by Annexin V-FITC/PI staining based flow cytometry (reference value: 91.69%). The assay is classed as functional. The note with it: HepG2, 48 h, read-out: Activity.

Description for A549: Antiproliferative activity against human A549 cells after 72 hrs by MTT assay

In general, IC50 refers to the concentration that gives 50% inhibition. Read a high IC50 as a need for much substance. For the molecule `COc1cc2c(Oc3ccc(NC(=O)c4cc5cccnc5n(-c5ccc(C(F)(F)F)cc5Cl)c4=O)cc3F)ccnc2cc1OCCCN1CCOCC1`, the IC50 in the assay with A549 was determined as 4190 nM; with HepG2 [1], 4170 nM; with MCF7, 9410 nM.

Turning to `COc1cc2c(Oc3ccc(NC(=O)c4cc5cccnc5n(-c5ccc(F)cc5)c4=O)cc3F)ccnc2cc1OCCCN1CCN(C)CC1`, the IC50 in assay [2] was 10.1 nM; in [3] it was 183 nM; in assay [4], 200 nM; in assay [5], 2.36 nM; in assay [6] it was 5.31 nM; in assay [7], > 10000 nM. Moreover, the IC50 in assay [8] amounted to 19.5 nM; in assay [9] it was 4.35 nM.

Take `COc1cc2c(Oc3ccc(NC(=O)c4cc5cccnc5n(-c5ccccc5)c4=O)cc3F)ccnc2cc1OCCCN1CCOCC1`: the 50% inhibitory concentration (IC50) was 16800 nM in the assay on A549, 11600 nM in the assay with HepG2 [1] and > 40000 nM with MCF7.

`COc1cc2c(Oc3ccc(NC(=O)c4cc5cccnc5n(-c5ccc(F)cc5)c4=O)cc3F)ccnc2cc1OCCCN1CCOCC1`: the IC50 in assay [5] was found to be 7.97 nM; in the assay with A549 it was 2410 nM; in the assay with HepG2 [1], 760 nM; in the assay with MCF7, 1780 nM.

As for `COc1cc2c(Oc3ccc(NC(=O)c4cc5cccnc5n(-c5ccc(F)cc5)c4=O)cc3F)ccnc2cc1OCCCN1CCCCC1`, in assay [5], the IC50 is 2.86 nM. That is a single-digit nanomolar value.

With `COc1cc2c(Oc3ccc(NC(=O)c4cc5cccnc5n(-c5ccc(Br)cc5)c4=O)cc3F)ccnc2cc1OCCCN1CCOCC1`, the 50% inhibitory concentration (IC50) amounted to 10.1 nM in [5], 4170 nM with A549, 1980 nM with HepG2 [1] and 610 nM in the assay on MCF7.

Regarding `COc1cc2c(Oc3ccc(NC(=O)c4cc5cccnc5n(-c5ccc(Br)cc5F)c4=O)cc3F)ccnc2cc1OCCCN1CCN(C)CC1`, in assay [5], the IC50 amounted to 6.41 nM.

In the case of `COc1cc2c(Oc3ccc(NC(=O)c4cc5cccnc5n(-c5ccc(Br)cc5F)c4=O)cc3F)ccnc2cc1OCCCN1CCOCC1`, the half-inhibitory concentration (IC50) in the assay on A549 is > 40000 nM; with HepG2 [1], > 40000 nM; in the assay on MCF7 it was 9750 nM.

`COc1cc2c(Oc3ccc(NC(=O)c4cc5cccnc5n(-c5ccc(Br)cc5)c4=O)cc3F)ccnc2cc1OCCCN1CCCCC1`: in [5], it took 29.2 nM to reach half-maximal inhibition (IC50).

`COc1cc2c(Oc3ccc(NC(=O)c4cc5cccnc5n(-c5ccc(Cl)cc5)c4=O)cc3F)ccnc2cc1OCCCN1CCOCC1`: the values for the IC50 in the assay with A549, with HepG2 [1] and in the assay on MCF7 were 4230 nM, > 40000 nM and 3210 nM, respectively.

Molecule `COc1cc2c(Oc3ccc(NC(=O)c4cc5cccnc5n(-c5ccc(Br)cc5F)c4=O)cc3F)ccnc2cc1OCCCN1CCC(C)CC1` returned an IC50 in [5] of 38.3 nM.

Regarding `COc1ccc(-n2c(=O)c(C(=O)Nc3ccc(Oc4ccnc5cc(OCCCN6CCOCC6)c(OC)cc45)c(F)c3)cc3cccnc32)cc1`, the results for the IC50 in the assay with A549, in the assay with HepG2 [1] and with MCF7 were 19500 nM, 9160 nM and 10500 nM, respectively.

For `COc1cc2c(Oc3ccc(NC(=O)c4cc5cccnc5n(-c5ccc(F)cc5)c4=O)cc3F)ccnc2cc1OCCCN1CCC(C)CC1`, 31.8 nM corresponded to half-maximal inhibition in assay [5] (IC50).

For `COc1cc2c(Oc3ccc(NC(=O)c4cc5cccnc5n(-c5ccc(F)c(Cl)c5)c4=O)cc3F)ccnc2cc1OCCCN1CCOCC1`, the figures for the concentration for half-maximal inhibition (IC50) in the assay on A549, in the assay with HepG2 [1] and in the assay with MCF7 were > 40000 nM, 9680 nM and 1120 nM, respectively.

On to `COc1cc2c(Oc3ccc(NC(=O)C4(C(=O)Nc5ccc(F)cc5)CC4)cc3F)ccnc2cc1OCCCN1CCOCC1` [FORETINIB], for which the Activity in the assay on HepG2 [10] is 8.36%; in the assay with HepG2 [11], 18.51%; in the assay on HepG2 [12], 0.64%. Further, the viability at 0.5 µM in the assay on HepG2 [13] amounted to 72.5%.
